{"source": "patent US4313946A", "about": "“Chemotherapeutically active maytansinoids from Trewia nudiflora” (priority 1981, dated 1982)", "key": {"[1]": {"test_system": "cultivated cells of human epidermoid carcinoma of the mouth (KB)", "assay": "KB Cell Culture Screen (NCI Protocol 1.600)", "assay_type": "cell-based", "details": "for IC50: Homo sapiens, KB, 72 h, 3 days after drug addition, activity indicated for ED50 ≤30 μg./ml., read-out: ED50 (dose that inhibits growth to 50% of control growth)", "procedure": "The KB Cell Culture Screen used in guiding the above-described fractionations was conducted in accordance with the National Cancer Institute (NCI) Protocol 1.600 [Geran et al., Cancer Chemother. Rep., Part 3, 3:17 (1972)] in which the effectiveness of the test compounds against cultivated cells of human epidermoid carcinoma of the mouth was evaluated. The results of this procedure are expressed as the dose that inhibits growth to 50% of control growth by 3 days after drug addition. Such a dose is referred to as ED50 and activity is indicated for ED50 levels of ≤30 μg./ml. The smaller the ED50 level, the more cytotoxic the test material. The activities of the crystallized compounds isolated above are reported below in Table III."}, "[2]": {"test_system": "lymphocytic leukemia P388", "assay": "PS system against lymphocytic leukemia P388 in mice (NCI Protocol 1.200)", "assay_type": "in vivo", "details": "i.p. once a day for 9 days", "procedure": "Another indication of fraction activity is the effectiveness in the PS system against lymphocytic leukemia P388 in mice. These assays are conducted according to the NCI Protocol 1.200 described in Geran et al., supra. Starting 24 hours after the tumor implantation, previously determined doses of each compound were injected intraperitoneally once a day for 9 days. Survival time of treated leukemic mice is compared to that of untreated mice (T/C×100). A T/C value of 100% indicates no activity. A T/C value greater than 100% means that the treated mice are surviving longer than the control mice. A compound giving a T/C value greater than 125% is indicative of activity as defined by the NCI Protocols, above."}, "[3]": {"test_system": "lymphocytic leukemia P388", "details": "Wani et al. 1973; cited from earlier work"}, "B16 melancarcinoma": {"test_system": "B16 melancarcinoma", "assay": "B1 system against B16 melancarcinoma in mice (NCI Protocol 1.300)", "assay_type": "in vivo", "details": "i.p. once a day for 9 days, vehicle Klucel, male B6C3F1 mice", "procedure": "Trewiasine was also evaluated in the B1 system against B16 melancarcinoma in mice. This assay is conducted in accordance with the NCI Protocol 1.300 described in Geran et al., supra. Starting 24 hours after the tumor implantation, predetermined doses of the compound were injected intraperitoneally once a day for 9 days. The results are reported in Table V below as the percent T/C."}}, "note": "Entries after “also recorded” stand apart in the source; their conditions may differ.", "data": [{"smiles": "C=C(C)C(=O)N(C)C(C)C(=O)OC1CC(=O)N(C)c2cc(cc(OC)c2Cl)C(OC)C(C)=CC=CC(OC)C2(O)CC(OC(=O)N2)C(C)C2OC12C", "note": "(stereo not drawn) [dehydrotrewiasine]", "values": [{"measurement": "IC50", "setting": "[1]", "value": "< 10", "unit": "ng/mL"}, {"measurement": "T/C", "setting": "[2]; 4.00 μg./kg./inj., vehicle biological saline, male CDF1 mice", "value": 120, "unit": "%"}, {"measurement": "T/C", "setting": "[2]; 8.00 μg./kg./inj., vehicle biological saline, male CDF1 mice", "value": 127, "unit": "%"}, {"measurement": "T/C", "setting": "[2]; 16.00 μg./kg./inj., vehicle biological saline, male CDF1 mice", "value": 120, "unit": "%"}, {"measurement": "T/C", "setting": "[2]; 32.00 μg./kg./inj., vehicle biological saline, male CDF1 mice", "value": 145, "unit": "%"}]}, {"smiles": "COc1cc2cc(c1Cl)N(C)C(=O)CC(OC(=O)C(C)N(C)C(=O)C(C)C)C1(C)OC1C(C)C1CC(O)(NC(=O)O1)C(OC)C=CC=C(C)C2OC(C)=O", "note": "(stereo not drawn) [colubrinol acetate]", "values": [{"measurement": "activity against lymphocytic leukemia P388", "setting": "[3]", "value": "activity against lymphocytic leukemia P388 at the microgram per kilogram level"}]}, {"smiles": "COc1cc2cc(c1Cl)N(C)C(=O)CC(OC(=O)C(C)NC(=O)C(C)C)C1(C)OC1C(C)C1CC(O)(NC(=O)O1)C(OC)C=CC=C(C)C2OC", "note": "(stereo not drawn) [demethyltrewiasine]", "values": [{"measurement": "IC50", "setting": "[1]", "value": "< 10", "unit": "ng/mL"}]}, {"smiles": "COc1cc2cc(c1Cl)N(C)C(=O)CC(OC(=O)C(C)N(C)C(=O)C(C)C)C1(C)OC1C(C)C1CC(O)(NC(=O)O1)C(OC)C=CC=C(C)C2O", "note": "(stereo not drawn) [colubrinol]", "values": [{"measurement": "activity against lymphocytic leukemia P388", "setting": "[3]", "value": "activity against lymphocytic leukemia P388 at the microgram per kilogram level"}]}, {"smiles": "COc1cc2cc(c1Cl)N(C)C(=O)CC(OC(=O)C(C)N(C)C(=O)C(C)C)C1(C)OC1C(C)C1CC(O)(NC(=O)O1)C(OC)C=CC=C(C)C2OC", "note": "(stereo not drawn) [trewiasine, 15-methoxymaytanbutine]", "values": [{"measurement": "IC50", "setting": "[1]", "value": 0.2, "unit": "ng/mL"}, {"measurement": "cytotoxicity relative to that reported by Kupchan for other maytansinoids", "setting": "[1]; KB system, compared with maytansine, maytanbutine and similar compounds", "value": "one or more orders of magnitude less; also recorded: at least one order of magnitude less"}, {"measurement": "T/C", "setting": "[2]; 4.00 μg./kg./inj., vehicle Klucel, female CDF1 mice", "value": 163, "unit": "%"}, {"measurement": "T/C", "setting": "[2]; 8.00 μg./kg./inj., vehicle Klucel, female CDF1 mice", "value": 140, "unit": "%"}, {"measurement": "T/C", "setting": "[2]; 16.00 μg./kg./inj., vehicle Klucel, female CDF1 mice", "value": 154, "unit": "%"}, {"measurement": "T/C", "setting": "[2]; 32.00 μg./kg./inj., vehicle Klucel, female CDF1 mice", "value": 128, "unit": "%"}, {"measurement": "T/C", "setting": "[2]; 64.00 μg./kg./inj., vehicle Klucel, female CDF1 mice", "value": 91, "unit": "%"}, {"measurement": "T/C", "setting": "B16 melancarcinoma; 1.00 μg./kg./inj.", "value": 133, "unit": "%"}, {"measurement": "T/C", "setting": "B16 melancarcinoma; 2.00 μg./kg./inj.", "value": 140, "unit": "%"}, {"measurement": "T/C", "setting": "B16 melancarcinoma; 4.00 μg./kg./inj.", "value": 157, "unit": "%"}, {"measurement": "T/C", "setting": "B16 melancarcinoma; 8.00 μg./kg./inj.", "value": 185, "unit": "%"}, {"measurement": "T/C", "setting": "B16 melancarcinoma; 16.00 μg./kg./inj.", "value": 172, "unit": "%"}, {"measurement": "T/C", "setting": "B16 melancarcinoma; 32.00 μg./kg./inj.", "value": 183, "unit": "%"}]}]}
